pEC50: −log10 of the molar value.
molecular target: T1, human GPR40 (Homo sapiens, UniProt O14842); experiment: Cell-based aequorin assay using human GPR40; settings: CHO cells transfected with GPR40 and aequorin expression vectors; aequorin luminescence; activation of human GPR40; read-out: Relative EC50
T1 construct: expressed in transfected cells; host or cells: CHO cells
Method: A cell-based aequorin assay may be employed to characterize the modulatory activity of compounds on the GPR40 signaling pathway. In an exemplary assay, CHO cells are transfected in a 15 cm plated containing 14 million cells with 5 μg of GPR40 expression vector and 5 μg of Aequorin expression vector (Euroscreen) using Lipofectamine 2000 (Invitrogen). After 17-24 hours post-transfection, cells are washed with phosphate buffered saline (PBS) and detached from the tissue culture dish with 2 mL of trypsin (0.25%(w/v)). Trypsinization is halted with 28 mL of Hanks Buffered Salt Solution containing 20 mM Hepes (H/HBSS) and 0.01% fatty acid-free bovine serum albumin (BSA) or 0.625% fatty acid-free human serum albumin (HSA). Coelantrazine is added to 1 ug/mL and the cells are incubated for 2 hours at room temperature. Cells are gently mixed every 15 minutes. Compounds are dissolved in dimethyl sulfoxide for preparation of 10 mM stock solutions. Compounds are diluted in H/HBSS containing either 0.01% BSA or 0.625% HSA. Serial dilutions of the test compounds are prepared to determine dose response. Aequorin luminescence measurements are made using an EG&G Berthold 96-well luminometer and the response is measured over a 20 second interval after cells and compounds are mixed. The area-under-curve from 2-20 seconds is plotted to determine dose response. The EC50 (effective concentration to reach 50% maximal response) is determined from the dose response plot. Table 1 includes representative data (EC50 values) obtained for exemplary compounds of the invention for the relative activation of human GPR40. […] Therefore, in some embodiments, the invention provides any of the compounds listed in Table 1 individually or as members of a group and pharmaceutically acceptable salts, esters, solvates, tautomers, stereoisomers, and/or prodrugs thereof.

T1 sequence (O14842 whole entry): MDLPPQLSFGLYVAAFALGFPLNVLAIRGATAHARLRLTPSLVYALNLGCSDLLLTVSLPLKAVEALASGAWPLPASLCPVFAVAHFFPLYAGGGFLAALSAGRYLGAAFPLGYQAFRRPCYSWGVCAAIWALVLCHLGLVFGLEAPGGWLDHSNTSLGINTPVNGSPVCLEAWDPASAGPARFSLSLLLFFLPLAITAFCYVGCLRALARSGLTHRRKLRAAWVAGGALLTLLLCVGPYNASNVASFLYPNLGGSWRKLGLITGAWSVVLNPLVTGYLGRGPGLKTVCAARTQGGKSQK

SMILES	pEC50
C=C1COc2cc(OCc3ccc(-c4cc(C)ccc4OCCCC)cc3)ccc2[C@@H]1CC(=O)O [Example 37, [(R)-7-(2′-Butoxy-5′-methyl-biphenyl-4-ylmethoxy)-3-methylene-chroman-4-yl]-acetic acid]	6.00 to 7.00
O=C(O)C1CCc2cc(OCCOc3cccc(C(F)(F)F)c3)ccc2C1 (stereo not shown) [Example 30]	5.00 to 6.00
O=C(O)C[C@@H]1CCCc2cc(OCc3cccc(-c4ccc(C(F)(F)F)cc4)c3)ccc21 [Example 3, [(S)-6(4′-Trifluoromethyl-biphenyl-3-ylmethoxy)-1,2,3,4-tetrahydro-naphthalen-1-yl]-acetic acid]	6.00 to 7.00
Cc1ccc(-c2nc(C)c(COc3ccc4c(c3)CCC4CC(=O)O)s2)cc1 (stereo not shown) [Example 14]	6.00 to 7.00
Cc1ccc(-c2nc(C)c(COc3ccc4c(c3)OCC[C@@H](C(=O)O)C4)s2)cc1 [Example 61, 8-((4-Methyl-2-p-tolylthiazol-5-yl)methoxy)-2,3,4,5-tetrahydrobenzo[b]oxepine-4-carboxylic acid]	6.00 to 7.00
O=C(O)Cn1ccc2cc(OCc3cccc(-c4ccc(C(F)(F)F)cc4)c3)ccc21 [Example 52]	5.00 to 6.00
CN1C(=O)c2cc(OCc3cccc(-c4ccc(C(F)(F)F)cc4)c3)ccc2C1CC(=O)O (racemic) [Example 70, (R/S)-(2-methyl-3-oxo-5-(((4′-(trifluoromethyl)-1,1′-biphenyl-3-yl)methyl)oxy)-2,3-dihydro-1H-isoindol-1-yl)acetic acid]	5.00 to 6.00
Cc1ccc(-c2nc(C)c(COc3ccc4c(c3)CCCC4C(F)(F)C(=O)O)s2)cc1 (stereo not shown) [Example 33]	5.00 to 6.00
Cc1ccccc1/C=C/c1ccc2c(c1)CCCC2CC(=O)O (stereo not shown) [Example 46, [6-((E)-2-o-Tolyl-vinyl)-1,2,3,4-tetrahydro-naphthalen-1-yl]-acetic acid]	5.00 to 6.00
Cc1nc(-c2ccc(C(F)(F)F)cc2)sc1COc1ccc2c(c1)CCC[C@@H]2CC(=O)O [Example 56]	6.00 to 7.00
CCCCOc1ccc(C)cc1-c1ccc(COc2ccc3c(c2)CCC(C(=O)O)C3)cc1 (racemic) [Example 29, (R/S)-6-(2′-Butoxy-5′-methyl-biphenyl-4-ylmethoxy)-1,2,3,4-tetrahydro-naphthalene-2-carboxylic acid]	6.00 to 7.00
C=C1CCOc2cc(OCc3ccccc3)ccc2C1CC(=O)O (racemic) [Example 43, (R/S)-2-(8-(benzyloxy)-4-methylene-2,3,4,5-tetrahydrobenzo[b]oxepin-5-yl)acetic acid]	6.00 to 7.00
O=C(O)C1CCc2cc(OCc3cccc(-c4ccc(C(F)(F)F)cc4)c3)ccc2C1 (stereo not shown) [Example 31]	5.00 to 6.00
Cc1c(Cl)cccc1-c1cccc(COc2ccc3c(c2)OCC[C@H](C(=O)O)C3)c1 [Example 65]	5.00 to 6.00
CCCCOc1ccc(C)cc1-c1ccc(COc2ccc3c(c2)CCCC3CC(=O)O)cc1 (racemic) [Example 1, (R/S)-[6-(2′-Butoxy-5′-methyl-biphenyl-4-ylmethoxy)-1,2,3,4-tetrahydro-naphthalen-1-yl]-acetic acid]	6.00 to 7.00
Cc1ccc(-c2nc(C)c(COc3ccc4c(c3)CCCC4CC(=O)O)s2)cc1 (stereo not shown) [Example 10]	6.00 to 7.00
Cc1ccc(-c2nc(C)c(COc3ccc4c(c3)C(CC(=O)O)CCC4)s2)cc1 (stereo not shown) [Example 17]	5.00 to 6.00
COc1ccc(COc2ccc3c(c2)CCCC3CC(=O)O)cc1 (stereo not shown) [Example 9]	5.00 to 6.00
CCCCOc1ccc(C)cc1-c1ccc(COc2ccc3c(c2)CCC3CC(=O)O)cc1 (racemic) [Example 11, (R/S)-[5-(2′-Butoxy-5′-methyl-biphenyl-4-ylmethoxy)-indan-1-yl]-acetic acid]	6.00 to 7.00

Next, values leading:

pEC50	SMILES
6.00 to 7.00	C/C=C1/COc2cc(OCc3ccc(-c4cc(C)ccc4OCCCC)cc3)ccc2C1CC(=O)O (stereo not shown) [Example 41]
6.00 to 7.00	O=C(O)CC1COCc2cc(OCc3cccc(-c4ccc(C(F)(F)F)cc4)c3)ccc21 (stereo not shown) [Example 42, 2-(7-(3-(4-Trifluoromethylphenyl)benzyloxy)-3,4-dihydro-1H-isochromen-4-yl)acetic acid]
5.00 to 6.00	O=C(O)C[C@H]1CCCc2cc(OCc3cccc(-c4ccc(C(F)(F)F)cc4)c3)ccc21 [Example 6]
5.00 to 6.00	CCCCOc1ccc(C)cc1-c1ccc(COc2ccc3c(c2)CC(CC(=O)O)CC3)cc1 (stereo not shown) [Example 21]
5.00 to 6.00	CCCCOc1ccc(C)cc1-c1ccc(COc2ccc3c(c2)CCC(C)C3CC(=O)O)cc1 (mixture of isomers) [Example 23]
5.00 to 6.00	COc1cccc(-c2ccc(COc3ccc4c(c3)CCC[C@H]4CC(=O)O)cc2)c1 [Example 57, (S)-[6-(3′-Methoxy-biphenyl-4-ylmethoxy)-1,2,3,4-tetrahydro-naphthalen-1-yl]-acetic acid]
6.00 to 7.00	CCOc1ccccc1-c1ccc(COc2ccc3c(c2)CCC3CC(=O)O)cc1 (stereo not shown) [Example 12]
5.00 to 6.00	CCCCOc1ccc(C)cc1-c1ccc(COc2ccc3c(c2)CC(C)C3CC(=O)O)cc1 (mixture of isomers) [Example 25]
5.00 to 6.00	CCOc1ccc(F)c(-c2ccc(COc3ccc4c(c3)CCC(C(=O)O)C4)cc2)c1 (racemic) [Example 72, (R/S)-6-(((5′-(ethoxy)-2′-fluoro-1,1′-biphenyl-4-yl)methyl)oxy)-1,2,3,4-tetrahydro-2-naphthalenecarboxylic acid]
6.00 to 7.00	CCOc1ccccc1-c1ccc(COc2ccc3c(c2)CCCC3CC(=O)O)cc1 (stereo not shown) [Example 2, [6-(2′-Ethoxy-biphenyl-4-ylmethoxy)-1,2,3,4-tetrahydro-naphthalen-1-yl]-acetic acid]
5.00 to 6.00	CCOc1ccccc1-c1ccc(COc2ccc3c(c2)CC(C)C3CC(=O)O)cc1 (mixture of isomers) [Example 27]
5.00 to 6.00	CCCCOc1ccc(C)cc1-c1ccc(COc2ccc3c(c2)C(CC(=O)O)CCC3)cc1 (stereo not shown) [Example 18]
5.00 to 6.00	CC1Cc2cc(OCc3cccc(-c4ccc(C(F)(F)F)cc4)c3)ccc2C1CC(=O)O (mixture of isomers) [Example 26]
5.00 to 6.00	CCOc1ccc(F)c(-c2ccc(COc3ccc4c(c3)CCC[C@H]4CC(=O)O)cc2)c1 [Example 59, (S)-[6-(5′-Ethoxy-2′-fluoro-biphenyl-4-ylmethoxy)-1,2,3,4-tetrahydro-naphthalen-1-yl]-acetic acid]
5.00 to 6.00	CCOc1cccc(-c2ccc(COc3ccc4c(c3)C(CC(=O)O)CCC4)cc2)c1 (stereo not shown) [Example 16]
